# Source: US20240408086A1, “USE OF LUVADAXISTAT FOR THE TREATMENT OF COGNITIVE IMPAIRMENT” (TAKEDA PHARMACEUTICAL COMPANY LIMITED, priority 2021, published 2024)
# System: adult patients with persistent negative symptoms of schizophrenia
# Type: in vivo, human
# From the text: To assess changes in cognitive impairment associated with schizophrenia (CIAS), secondary endpoints included the 12-week change from baseline in the Brief Assessment of Cognition in Schizophrenia (BACS) composite score, a measure of cognition across multiple domains, and the Schizophrenia Cognition Rating Scale (SCORS) score, a measure of day-to-day cognitive functioning requiring input from an adult informant. Secondary endpoints were not corrected for multiplicity.
# The BACS is specifically designed to measure treatment-related improvements in cognition and includes alternate forms. BACS is a reliable and sensitive measure of cognitive function in schizophrenia. The BACS is a cognition assessment battery that assesses 6 domains of cognitive function found to be consistently impaired in schizophrenia: verbal memory; working memory; motor speed; attention; executive functions; and verbal fluency. The primary measure from each test of the BACS is standardized by creating T-scores whereby the mean of the test session of a matched reference healthy participant is set to 50 and the standard deviation set to 10.
# [1] = 125 mg once daily, MMRM, preliminary analysis
# [2] = 125 mg once daily, preliminary analysis
smiles,measurement,setting,value
"O=c1[nH]nc(CCc2ccc(C(F)(F)F)cc2)cc1O [Compound (I), luvadaxistat]","BACS Attention Cognition Domain, Difference from Placebo for Week 6, LS Mean (SE)","50 mg, Week 6, MMRM",−0.1 (1.12)
same,"BACS Executive Functions Cognition Domain, Adjusted Change from Baseline to Week 6, LS Mean (SE)","50 mg, Week 6, MMRM",0.9 (1.22)
same,"BACS Executive Functions Cognition Domain, Difference from Placebo for Week 6, LS Mean (SE)","50 mg, Week 6, MMRM",2.1 (1.53)
same,"BACS Verbal Fluency Cognition Domain, Adjusted Change from Baseline to Week 6, LS Mean (SE)","50 mg, Week 6, MMRM",−0.3 (0.70)
same,"BACS Verbal Fluency Cognition Domain, Difference from Placebo for Week 6, LS Mean (SE)","50 mg, Week 6, MMRM",−0.5 (0.87)
same,"BACS Attention Cognition Domain, Change from Baseline to Week 12, Mean (SD)","50 mg, Week 12",2.2 (6.95)
same,"BACS Attention Cognition Domain, Change from Baseline to Week 12, Median","50 mg, Week 12",2.0
same,"BACS Attention Cognition Domain, Week 12, Mean (SD)","50 mg, Week 12",38.0 (11.83)
same,"BACS Attention Cognition Domain, Week 12, Median","50 mg, Week 12",39.0
same,"BACS Executive Functions Cognition Domain, Change from Baseline to Week 12, Mean (SD)","50 mg, Week 12",2.6 (7.73)
same,"BACS Executive Functions Cognition Domain, Change from Baseline to Week 12, Median","50 mg, Week 12",1.0
same,"BACS Executive Functions Cognition Domain, Week 12, Mean (SD)","50 mg, Week 12",46.4 (10.55)
same,"BACS Executive Functions Cognition Domain, Week 12, Median","50 mg, Week 12",49.5
same,"BACS Verbal Fluency Cognition Domain, Change from Baseline to Week 12, Mean (SD)","50 mg, Week 12",1.5 (5.87)
same,"BACS Verbal Fluency Cognition Domain, Change from Baseline to Week 12, Median","50 mg, Week 12",0.0
same,"BACS Verbal Fluency Cognition Domain, Week 12, Mean (SD)","50 mg, Week 12",41.8 (10.41)
same,"BACS Verbal Fluency Cognition Domain, Week 12, Median","50 mg, Week 12",40.0
same,"BACS Attention Cognition Domain, Adjusted Change from Baseline to Week 12, LS Mean (SE)","50 mg, Week 12, MMRM",2.3 (1.02)
same,"BACS Attention Cognition Domain, Difference from Placebo for Week 12, LS Mean (SE)","50 mg, Week 12, MMRM",0.4 (1.28)
same,"BACS Executive Functions Cognition Domain, Adjusted Change from Baseline to Week 12, LS Mean (SE)","50 mg, Week 12, MMRM",1.8 (1.09)
same,"BACS Executive Functions Cognition Domain, Difference from Placebo for Week 12, LS Mean (SE)","50 mg, Week 12, MMRM",1.2 (1.36)
same,"BACS Verbal Fluency Cognition Domain, Adjusted Change from Baseline to Week 12, LS Mean (SE)","50 mg, Week 12, MMRM",1.2 (0.85)
same,"BACS Verbal Fluency Cognition Domain, Difference from Placebo for Week 12, LS Mean (SE)","50 mg, Week 12, MMRM",0.2 (1.07)
same,"BACS Verbal Memory Cognition Domain, Difference from Placebo for Week 6, LS Mean (SE)","125 mg once daily, MMRM, one-sided unadjusted p 0.025, preliminary analysis",2.5 (1.29)
same,"BACS Composite Score, Difference from Placebo for Week 6, LS Mean (SE)","125 mg once daily, MMRM, one-sided unadjusted p 0.038, preliminary analysis",1.8 (1.02)
same,"BACS Motor Speed Cognition Domain, Difference from Placebo for Week 12, LS Mean (SE)","125 mg once daily, MMRM, one-sided unadjusted p 0.067, preliminary analysis",1.8 (1.18)
same,"BACS Composite Score, Difference from Placebo for Week 12, LS Mean (SE)","125 mg once daily, MMRM, one-sided unadjusted p 0.095, preliminary analysis",1.5 (1.16)
same,"BACS Verbal Memory Cognition Domain, Difference from Placebo for Week 12, LS Mean (SE)","125 mg once daily, MMRM, one-sided unadjusted p 0.164, preliminary analysis",1.4 (1.44)
same,"BACS Working Memory Cognition Domain, Difference from Placebo for Week 6, LS Mean (SE)","125 mg once daily, MMRM, one-sided unadjusted p 0.239, preliminary analysis",0.8 (1.16)
same,"BACS Working Memory Cognition Domain, Difference from Placebo for Week 12, LS Mean (SE)","125 mg once daily, MMRM, one-sided unadjusted p 0.406, preliminary analysis",0.3 (1.35)
same,"BACS Motor Speed Cognition Domain, Difference from Placebo for Week 6, LS Mean (SE)","125 mg once daily, MMRM, one-sided unadjusted p 0.753, preliminary analysis",−0.9 (1.26)
same,"BACS Composite Score, Adjusted Change from Baseline to Week 6, LS Mean (SE)",[1],1.4 (0.80)
same,"BACS Composite Score, Adjusted Change from Baseline to Week 12, LS Mean (SE)",[1],2.3 (0.91)
same,"BACS Motor Speed Cognition Domain, Adjusted Change from Baseline to Week 6, LS Mean (SE)",[1],−1.0 (0.98)
same,"BACS Motor Speed Cognition Domain, Adjusted Change from Baseline to Week 12, LS Mean (SE)",[1],1.3 (0.93)
same,"BACS Verbal Memory Cognition Domain, Adjusted Change from Baseline to Week 6, LS Mean (SE)",[1],1.2 (1.01)
same,"BACS Verbal Memory Cognition Domain, Adjusted Change from Baseline to Week 12, LS Mean (SE)",[1],0.8 (1.13)
same,"BACS Working Memory Cognition Domain, Adjusted Change from Baseline to Week 6, LS Mean (SE)",[1],0.9 (0.90)
same,"BACS Working Memory Cognition Domain, Adjusted Change from Baseline to Week 12, LS Mean (SE)",[1],1.0 (1.06)
same,"BACS Composite Score, Change from Baseline to Week 6, Mean (SD)",[2],1.9 (4.95)
same,"BACS Composite Score, Change from Baseline to Week 6, Median",[2],2.0
same,"BACS Composite Score, Change from Baseline to Week 12, Mean (SD)",[2],2.9 (6.54)
same,"BACS Composite Score, Change from Baseline to Week 12, Median",[2],3.5
same,"BACS Composite Score, Week 6, Mean (SD)",[2],35.6 (14.55)
same,"BACS Composite Score, Week 6, Median",[2],37.0
same,"BACS Composite Score, Week 12, Mean (SD)",[2],37.1 (15.02)
same,"BACS Composite Score, Week 12, Median",[2],38.5
same,"BACS Motor Speed Cognition Domain, Change from Baseline to Week 6, Mean (SD)",[2],0.0 (5.97)
same,"BACS Motor Speed Cognition Domain, Change from Baseline to Week 6, Median",[2],0.5
same,"BACS Motor Speed Cognition Domain, Change from Baseline to Week 12, Mean (SD)",[2],2.5 (7.60)
same,"BACS Motor Speed Cognition Domain, Change from Baseline to Week 12, Median",[2],2.0
same,"BACS Motor Speed Cognition Domain, Week 6, Mean (SD)",[2],39.6 (10.80)
same,"BACS Motor Speed Cognition Domain, Week 6, Median",[2],39.0
same,"BACS Motor Speed Cognition Domain, Week 12, Mean (SD)",[2],42.6 (10.35)
same,"BACS Motor Speed Cognition Domain, Week 12, Median",[2],42.0
same,"BACS Verbal Memory Cognition Domain, Change from Baseline to Week 6, Mean (SD)",[2],1.8 (7.71)
same,"BACS Verbal Memory Cognition Domain, Change from Baseline to Week 6, Median",[2],2.5
same,"BACS Verbal Memory Cognition Domain, Change from Baseline to Week 12, Mean (SD)",[2],1.6 (8.07)
same,"BACS Verbal Memory Cognition Domain, Change from Baseline to Week 12, Median",[2],1.0
same,"BACS Verbal Memory Cognition Domain, Week 6, Mean (SD)",[2],42.4 (12.62)
same,"BACS Verbal Memory Cognition Domain, Week 6, Median",[2],42.0
same,"BACS Verbal Memory Cognition Domain, Week 12, Mean (SD)",[2],42.3 (13.54)
same,"BACS Verbal Memory Cognition Domain, Week 12, Median",[2],42.5
same,"BACS Working Memory Cognition Domain, Change from Baseline to Week 6, Mean (SD)",[2],1.5 (5.89)
